Measured values taken from ChEMBL document CHEMBL1201862, “PubChem BioAssay data set” (2004).
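Values below derive from 48-hour exposures of cells grown in 96-well plates, with endpoints linearly interpolated between the two concentrations bracketing the appropriate inhibition level. GI50 is the concentration that inhibits growth by half.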 Active and inactive are the calls of the source. Cut-off read from the data, not from the text of the source: active = GI50 up to about 1.1 µM and inactive = higher.

Experiments:
Assay in all cases: growth of human tumour cells (NCI), 48 h
786-0 = tested on: 786-0
A498 = tested on: A498
A549 = tested on: A549
ACHN = tested on: ACHN
BT-549 = tested on: BT-549
CAKI-1 = tested on: CAKI-1
CCRF-CEM = tested on: CCRF-CEM
COLO 205 = tested on: COLO 205
DU-145 = tested on: DU-145
EKVX = tested on: EKVX
HCC 2998 = tested on: HCC 2998
HCT-116 = tested on: HCT-116
HCT-15 = tested on: HCT-15
HL-60 = tested on: HL-60
HOP-62 = tested on: HOP-62
HOP-92 = tested on: HOP-92
HT-29 = tested on: HT-29
Hs-578T = tested on: Hs-578T
IGROV-1 = tested on: IGROV-1
K562 = tested on: K562
KM12 = tested on: KM12
LOX IMVI = tested on: LOX IMVI
M14 = tested on: M14
MCF7 = tested on: MCF7
MDA-MB-231 = tested on: MDA-MB-231
MDA-MB-435 = tested on: MDA-MB-435
MDA-N = tested on: MDA-N
MOLT-4 = tested on: MOLT-4
Malme-3M = tested on: Malme-3M
NCI-H226 = tested on: NCI-H226
NCI-H23 = tested on: NCI-H23
NCI-H460 = tested on: NCI-H460
NCI-H522 = tested on: NCI-H522
NCI/ADR-RES = tested on: NCI/ADR-RES
OVCAR-3 = tested on: OVCAR-3
OVCAR-4 = tested on: OVCAR-4
OVCAR-5 = tested on: OVCAR-5
OVCAR-8 = tested on: OVCAR-8
PC-3 = tested on: PC-3
RPMI-8226 = tested on: RPMI-8226
RXF 393 = tested on: RXF 393
SF-268 = tested on: SF-268
SF-295 = tested on: SF-295
SF-539 = tested on: SF-539
SK-MEL-28 = tested on: SK-MEL-28
SK-MEL-2 = tested on: SK-MEL-2
SK-MEL-5 = tested on: SK-MEL-5
SK-OV-3 = tested on: SK-OV-3
SN12C = tested on: SN12C
SNB-19 = tested on: SNB-19
SNB-75 = tested on: SNB-75
SR = tested on: SR
SW-620 = tested on: SW-620
T47D = tested on: T47D
TK-10 = tested on: TK-10
U-251 = tested on: U-251
UACC-257 = tested on: UACC-257
UACC-62 = tested on: UACC-62
UO-31 = tested on: UO-31

Measured: GI50

CCC(CCCC[C@H]1CC[C@@H]2CC(=O)C[C@H]12)OC (stereo partly specified)
> 100 µM: HCT-15
inactive: 786-0 > 100 µM | A498 > 100 µM | A549 > 100 µM | ACHN > 100 µM | BT-549 50.7 µM | CAKI-1 > 100 µM | CCRF-CEM > 100 µM | COLO 205 > 100 µM | DU-145 > 100 µM | EKVX 59 µM | HCC 2998 > 100 µM | HCT-116 76 µM | HL-60 39.5 µM | HOP-62 > 100 µM | HOP-92 > 100 µM | HT-29 > 100 µM | Hs-578T > 100 µM | IGROV-1 > 100 µM | K562 25.6 µM | KM12 > 100 µM | LOX IMVI > 100 µM | M14 > 100 µM | MCF7 > 100 µM | MDA-MB-231 > 100 µM | MDA-MB-435 > 100 µM | MDA-N > 100 µM | MOLT-4 > 100 µM | Malme-3M > 100 µM | NCI-H226 > 100 µM | NCI-H23 35.2 µM | NCI-H460 > 100 µM | NCI-H522 > 100 µM | NCI/ADR-RES 66.5 µM | OVCAR-3 > 100 µM | OVCAR-4 > 100 µM | OVCAR-5 > 100 µM | OVCAR-8 > 100 µM | PC-3 > 100 µM | RPMI-8226 > 100 µM | RXF 393 > 100 µM | SF-268 > 100 µM | SF-295 > 100 µM | SF-539 > 100 µM | SK-MEL-28 > 100 µM | SK-MEL-2 > 100 µM | SK-MEL-5 31.8 µM | SK-OV-3 > 100 µM | SN12C > 100 µM | SNB-19 > 100 µM | SNB-75 59 µM | SR 51.8 µM | SW-620 > 100 µM | T47D > 100 µM | TK-10 > 100 µM | U-251 > 100 µM | UACC-257 46.5 µM | UACC-62 76 µM

O=[N+]([O-])c1ccc(O)c(/C=N/c2nc(-c3ccccc3)cs2)c1
29.1 µM: HCT-15
inactive: 786-0 34.2 µM | A498 > 93.5 µM | A549 38.5 µM | ACHN 31.4 µM | BT-549 17.1 µM | CAKI-1 77.6 µM | CCRF-CEM 43.3 µM | COLO 205 19.6 µM | DU-145 30.4 µM | EKVX 31.3 µM | HCC 2998 24.8 µM | HCT-116 26.7 µM | HL-60 34.2 µM | HOP-62 26.7 µM | HOP-92 22.9 µM | HT-29 34.2 µM | Hs-578T 25.8 µM | IGROV-1 24.2 µM | K562 2.4 µM | KM12 37.5 µM | LOX IMVI 15.8 µM | M14 29.4 µM | MCF7 26.8 µM | MDA-MB-231 33.3 µM | MDA-MB-435 35.5 µM | MDA-N 27.5 µM | MOLT-4 17.9 µM | Malme-3M 24.8 µM | NCI-H226 24.7 µM | NCI-H23 20.3 µM | NCI-H460 38.1 µM | NCI-H522 19.2 µM | NCI/ADR-RES 29.7 µM | OVCAR-3 35.2 µM | OVCAR-4 58.3 µM | OVCAR-5 31.6 µM | OVCAR-8 25.9 µM | PC-3 33.3 µM | RPMI-8226 8.95 µM | RXF 393 20.8 µM | SF-268 27.9 µM | SF-295 33.1 µM | SK-MEL-28 31.9 µM | SK-MEL-2 24.4 µM | SK-MEL-5 13.2 µM | SK-OV-3 32.5 µM | SN12C 34.8 µM | SNB-19 29 µM | SNB-75 23 µM | SR 3.03 µM | SW-620 37.6 µM | T47D 24.3 µM | TK-10 42.5 µM | U-251 32.2 µM | UACC-257 45.9 µM | UACC-62 4.67 µM | UO-31 26.4 µM
